# Results taken from patent US9108944B2, “Androgen receptor modulators and uses thereof” (ARAGON PHARMACEUTICALS, INC., priority 2010, dated 2015).
# Tests used:
# AR-VP16 [1] = target: T1, AR-VP16 (Homo sapiens, UniProt P10275); assay: AR-VP16 DNA Binding Assay, agonist mode (HepG2 cells); assay type: cell-based; settings: Emax >20x DMSO control = agonist
# T1 sequence (P10275 560-920 limits assumed): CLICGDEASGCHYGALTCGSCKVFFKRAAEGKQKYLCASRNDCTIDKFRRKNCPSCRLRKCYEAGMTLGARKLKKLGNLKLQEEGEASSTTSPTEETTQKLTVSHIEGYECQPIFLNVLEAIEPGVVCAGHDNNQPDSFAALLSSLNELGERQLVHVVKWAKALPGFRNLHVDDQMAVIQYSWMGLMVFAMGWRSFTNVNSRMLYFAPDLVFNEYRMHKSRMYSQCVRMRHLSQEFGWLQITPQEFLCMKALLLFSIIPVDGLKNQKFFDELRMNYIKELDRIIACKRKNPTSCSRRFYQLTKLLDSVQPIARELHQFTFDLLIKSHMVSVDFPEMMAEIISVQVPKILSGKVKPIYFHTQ
# AR-VP16 [2] = target: T1, AR-VP16; assay: AR-VP16 DNA Binding Assay, antagonist mode (HepG2 cells, 0.1 nM R1881); assay type: cell-based
# Method in brief: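 Transfected HepG2 cells expressing AR-VP16 received serially diluted compound in charcoal-stripped-serum RPMI the day after transfection, with 0.1 nM R1881 (final) added only for antagonist testing. After 48 h, cells were lysed for measurement.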
Structure (SMILES),ARVP16 DNA Binding Assay (Agonist mode): Agonist? (AR-VP16 [1]),IC50 (AR-VP16 [2]) [nM]
"Cc1cc(N2C(=O)C(C)(C)N(c3ccc(OC4CCN(C)CC4)cc3)C2=S)cnc1C#N [Compound 197, 5-(4,4-Dimethyl-3-(4-((1-methylpiperidin-4-yl)oxy)phenyl)-5-oxo-2-thioxoimidazolidin-1-yl)-3-methylpicolinonitrile]",No (Agonist defined as a compound whose Emax in the ARVP16 DNA Binding Assay (Agonist mode) is >20x DMSO control),> 1000
"CCOC(=O)c1ccc(N2C(=S)N(c3cnc(C#N)c(C(F)(F)F)c3)C(=O)C23CCC3)cc1F [Compound 3, Ethyl 4-(7-(6-cyano-5-(trifluoromethyl)pyridin-3-yl)-8-oxo-6-thioxo-5,7-diazaspiro[3.4]octan-5-yl)-2-fluorobenzoate]",No (Agonist defined as a compound whose Emax in the ARVP16 DNA Binding Assay (Agonist mode) is >20x DMSO control),> 1000
"Cc1cc(N2C(=O)C3(CCC3)N(c3ccc(OC4CCN(C)CC4)cc3)C2=S)cnc1C#N [Compound 191, 3-Methyl-5-(5-(4-((1-methylpiperidin-4-yl)oxy)phenyl)-8-oxo-6-thioxo-5,7-diazaspiro[3.4]octan-7-yl)picolinonitrile]",No (Agonist defined as a compound whose Emax in the ARVP16 DNA Binding Assay (Agonist mode) is >20x DMSO control),> 1000
"NC(=O)c1ncc(N2C(=O)C3(CCC3)N(c3ccc(F)c(C(=O)O)c3)C2=S)cc1C(F)(F)F [Compound 229, 5-(7-(6-Carbamoyl-5-(trifluoromethyl)pyridin-3-yl)-8-oxo-6-thioxo-5,7-diazaspiro[3.4]octan-5-yl)-2-fluorobenzoic acid]",No (Agonist defined as a compound whose Emax in the ARVP16 DNA Binding Assay (Agonist mode) is >20x DMSO control),< 1000
"CC(C)CNC(=O)c1ccc(N2C(=S)N(c3cnc(C#N)c(C(F)(F)F)c3)C(=O)C23CCC3)cc1F [Compound 280, 4-(7-(6-Cyano-5-(trifluoromethyl)pyridin-3-yl)-8-oxo-6-thioxo-5,7-diazaspiro[3.4]octan-5-yl)-2-fluoro-N-isobutylbenzamide]",No (Agonist defined as a compound whose Emax in the ARVP16 DNA Binding Assay (Agonist mode) is >20x DMSO control),< 1000
"CCC(=O)N1CCC(Oc2ccc(N3C(=S)N(c4cnc(C#N)c(C(F)(F)F)c4)C(=O)C34CCC4)cc2)CC1 [Compound 212, 5-(8-Oxo-5-(4-((1-propionylpiperidin-4-yl)oxy)phenyl)-6-thioxo-5,7-diazaspiro[3.4]octan-7-yl)-3-(trifluoromethyl)picolinonitrile]",Yes (Agonist defined as a compound whose Emax in the ARVP16 DNA Binding Assay (Agonist mode) is >20x DMSO control),< 1000
"CN(C)S(=O)(=O)c1ccc(N2C(=S)N(c3cnc(C#N)c(C(F)(F)F)c3)C(=O)C23CCC3)cc1 [Compound 121, 4-(7-(6-Cyano-5-(trifluoromethyl)pyridin-3-yl)-8-oxo-6-thioxo-5,7-diazaspiro[3.4]octan-5-yl)-N,N-dimethylbenzenesulfonamide]",No (Agonist defined as a compound whose Emax in the ARVP16 DNA Binding Assay (Agonist mode) is >20x DMSO control),> 1000
"Cc1cc(N2C(=O)C3(CCC3)N(c3ccc(C(=O)NCCCN4CCCC4)c(F)c3)C2=S)cnc1C#N [Compound 275, 4-(7-(6-Cyano-5-methylpyridin-3-yl)-8-oxo-6-thioxo-5,7-diazaspiro[3.4]octan-5-yl)-2-fluoro-N-(3-(pyrrolidin-1-yl)propyl)benzamide]",No (Agonist defined as a compound whose Emax in the ARVP16 DNA Binding Assay (Agonist mode) is >20x DMSO control),> 1000
"COc1cc(F)ccc1N1C(=S)N(c2cnc(C#N)c(C(F)(F)F)c2)C(=O)C12CCC2 [Compound 29, 5-(5-(4-Fluoro-2-methoxyphenyl)-8-oxo-6-thioxo-5,7-diazaspiro[3.4]octan-7-yl)-3-(trifluoromethyl)picolinonitrile]",No (Agonist defined as a compound whose Emax in the ARVP16 DNA Binding Assay (Agonist mode) is >20x DMSO control),< 1000
"CNC(=O)c1ccc(N2C(=S)N(c3cnc(C#N)c(C)c3)C(=O)C23CCC3)cc1 [Compound 78, 4-(7-(6-Cyano-5-methylpyridin-3-yl)-8-oxo-6-thioxo-5,7-diazaspiro[3.4]octan-5-yl)-N-methylbenzamide]",No (Agonist defined as a compound whose Emax in the ARVP16 DNA Binding Assay (Agonist mode) is >20x DMSO control),> 1000
"N#Cc1ncc(N2C(=O)C3(CCC3)N(c3ccc(C(=O)N4CCOCC4)c(F)c3)C2=S)cc1C(F)(F)F [Compound 271, 5-(5-(3-Fluoro-4-(morpholine-4-carbonyl)phenyl)-8-oxo-6-thioxo-5,7-diazaspiro[3.4]octan-7-yl)-3-(trifluoromethyl)picolinonitrile]",No (Agonist defined as a compound whose Emax in the ARVP16 DNA Binding Assay (Agonist mode) is >20x DMSO control),> 1000
"Cc1cc(N2C(=O)C(C)(C)N(c3ccc(O)cc3)C2=S)cnc1C#N [Compound 101, 5-(3-(4-Hydroxyphenyl)-4,4-dimethyl-5-oxo-2-thioxoimidazolidin-1-yl)-3-methylpicolinonitrile]",No (Agonist defined as a compound whose Emax in the ARVP16 DNA Binding Assay (Agonist mode) is >20x DMSO control),> 1000
"N#Cc1ncc(N2C(=O)C3(CCC3)N(c3ccc(F)cc3)C2=S)cc1C(F)(F)F [Compound 28, 5-(5-(4-Fluorophenyl)-8-oxo-6-thioxo-5,7-diazaspiro[3.4]octan-7-yl)-3-(trifluoromethyl)picolinonitrile]",No (Agonist defined as a compound whose Emax in the ARVP16 DNA Binding Assay (Agonist mode) is >20x DMSO control),< 1000
"CCOC(=O)N1CCC(Oc2ccc(N3C(=S)N(c4cnc(C#N)c(C(F)(F)F)c4)C(=O)C34CCC4)cc2)CC1 [Compound 214, ethyl 4-(4-(7-(6-cyano-5-(trifluoromethyl)pyridin-3-yl)-8-oxo-6-thioxo-5,7-diazaspiro[3.4]octan-5-yl)phenoxy)piperidine-1-carboxylate]",Yes (Agonist defined as a compound whose Emax in the ARVP16 DNA Binding Assay (Agonist mode) is >20x DMSO control),< 1000
"Cc1cc(N2C(=O)C3(CCC3)N(c3ccc(C(=O)O)c(F)c3)C2=S)cnc1C#N [Compound 225, 4-(7-(6-Cyano-5-methylpyridin-3-yl)-8-oxo-6-thioxo-5,7-diazaspiro[3.4]octan-5-yl)-2-fluorobenzoic acid]",No (Agonist defined as a compound whose Emax in the ARVP16 DNA Binding Assay (Agonist mode) is >20x DMSO control),< 1000
"N#Cc1ncc(N2C(=O)C3(CCC3)N(c3ccc(OC4CCNCC4)cc3)C2=S)cc1C(F)(F)F [Compound 211, 5-(8-Oxo-5-(4-(piperidin-4-yloxy)phenyl)-6-thioxo-5,7-diazaspiro[3.4]octan-7-yl)-3-(trifluoromethyl)picolinonitrile]",No (Agonist defined as a compound whose Emax in the ARVP16 DNA Binding Assay (Agonist mode) is >20x DMSO control),< 1000
"CCOC(=O)c1cc(N2C(=S)N(c3cnc(C#N)c(C(F)(F)F)c3)C(=O)C23CCC3)ccc1F [Compound 8, Ethyl 5-(7-(6-cyano-5-(trifluoromethyl)pyridin-3-yl)-8-oxo-6-thioxo-5,7-diazaspiro[3.4]octan-5-yl)-2-fluorobenzoate]",No (Agonist defined as a compound whose Emax in the ARVP16 DNA Binding Assay (Agonist mode) is >20x DMSO control),> 1000
"N#Cc1cccc(N2C(=S)N(c3cnc(C#N)c(C(F)(F)F)c3)C(=O)C23CCC3)c1 [Compound 11, 5-(5-(3-Cyanophenyl)-8-oxo-6-thioxo-5,7-diazaspiro[3.4]octan-7-yl)-3-(trifluoromethyl)picolinonitrile]",No (Agonist defined as a compound whose Emax in the ARVP16 DNA Binding Assay (Agonist mode) is >20x DMSO control),< 1000
"Cc1ccc(N2C(=S)N(c3cnc(C#N)c(C(F)(F)F)c3)C(=O)C23CCC3)c(F)c1 [Compound 50, 5-(5-(2-Fluoro-4-methylphenyl)-8-oxo-6-thioxo-5,7-diazaspiro[3.4]octan-7-yl)-3-(trifluoromethyl)picolinonitrile]",No (Agonist defined as a compound whose Emax in the ARVP16 DNA Binding Assay (Agonist mode) is >20x DMSO control),< 1000
"N#Cc1ncc(N2C(=O)C3(CCC3)N(c3ccc(CO)cc3)C2=S)cc1C(F)(F)F [Compound 69, 5-(5-(4-(Hydroxymethyl)phenyl)-8-oxo-6-thioxo-5,7-diazaspiro[3.4]octan-7-yl)-3-(trifluoromethyl)picolinonitrile]",No (Agonist defined as a compound whose Emax in the ARVP16 DNA Binding Assay (Agonist mode) is >20x DMSO control),< 1000
"Cc1cc(N2C(=O)C3(CCC3)N(c3ccc(C(=O)Nc4ccc(Cl)cc4)c(F)c3)C2=S)cnc1C#N [Compound 296, N-(4-Chlorophenyl)-4-(7-(6-cyano-5-methylpyridin-3-yl)-8-oxo-6-thioxo-5,7-diazaspiro[3.4]octan-5-yl)-2-fluorobenzamide]",No (Agonist defined as a compound whose Emax in the ARVP16 DNA Binding Assay (Agonist mode) is >20x DMSO control),< 1000
